According to PubChem BioAssay AID248 (DTP/NCI, 2004):
“And” between values parts separate entries of the source, which are not always exact repeats. Equal values may be shown once. Toxic doses and inconclusive results are not listed. No stated cut-off is given here; in the data, active means T/C of 150% or more; inactive means T/C below 125%.

Tested on: L1210 leukemia ip in BDF1 mice, survival T/C
Assay: NCI In Vivo Anticancer Drug Screen. Data for tumor model L1210 Leukemia (intraperitoneal) in B6D2F1 (BDF1) mice
Conditions: endpoint: mean survival time, higher = longer survival
In short: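 In this screen, tumor-bearing mice given compound are compared to those given vehicle, and their survival values are reported as a treated-to-control quotient.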

[1] = dose: 100.0 mg/kg/injection, schedule: Q01DX009 (ip), vehicle: saline
[2] = dose: 200.0 mg/kg/injection, schedule: Q01DX009 (ip), vehicle: saline
[3] = dose: 100.0 mg/kg/injection, schedule: Q01DX001 (ip), vehicle: saline
[4] = dose: 200.0 mg/kg/injection, schedule: Q01DX001 (ip), vehicle: saline
[5] = dose: 400.0 mg/kg/injection, schedule: Q01DX001 (ip), vehicle: saline
[6] = dose: 100.0 mg/kg/injection, schedule: Q04DX002 (ip), vehicle: Klucel (hydroxypropylcellulose) (HPC)
[7] = dose: 100.0 mg/kg/injection, schedule: Q01DX009 (ip), vehicle: Klucel (hydroxypropylcellulose) (HPC)
[8] = dose: 200.0 mg/kg/injection, schedule: Q01DX009 (ip), vehicle: Klucel (hydroxypropylcellulose) (HPC)
[9] = dose: 400.0 mg/kg/injection, schedule: Q01DX009 (ip), vehicle: Klucel (hydroxypropylcellulose) (HPC)
[10] = dose: 100.0 mg/kg/injection, schedule: Q04DX003 (ip), vehicle: Klucel (hydroxypropylcellulose) (HPC)
[11] = dose: 200.0 mg/kg/injection, schedule: Q04DX003 (ip), vehicle: Klucel (hydroxypropylcellulose) (HPC)
[12] = dose: 400.0 mg/kg/injection, schedule: Q04DX003 (ip), vehicle: Klucel (hydroxypropylcellulose) (HPC)
[13] = dose: 100.0 mg/kg/injection, schedule: Q01DX009 (ip), vehicle: saline with Tween-80
[14] = dose: 200.0 mg/kg/injection, schedule: Q01DX009 (ip), vehicle: saline with Tween-80
[15] = dose: 400.0 mg/kg/injection, schedule: Q01DX009 (ip), vehicle: saline with Tween-80
[16] = dose: 100.0 mg/kg/injection, schedule: Q01DX001 (ip), vehicle: carboxymethylcellulose (CMC)
[17] = dose: 200.0 mg/kg/injection, schedule: Q01DX001 (ip), vehicle: carboxymethylcellulose (CMC)
[18] = dose: 400.0 mg/kg/injection, schedule: Q01DX001 (ip), vehicle: carboxymethylcellulose (CMC)

Measured: T/C

CCCCCCCCCCCCCCCCNCC(=O)Nc1ccc(S(=O)(=O)c2ccc(NC(=O)CNCCCCCCCCCCCCCCCC)cc2)cc1
inactive: dose: 4.0 mg/kg/injection, schedule: Q01DX015 (ip), vehicle: carboxymethylcellulose (CMC) 94 % of control | dose: 8.0 mg/kg/injection, schedule: Q01DX015 (ip), vehicle: carboxymethylcellulose (CMC) 94 % of control | dose: 16.0 mg/kg/injection, schedule: Q01DX015 (ip), vehicle: carboxymethylcellulose (CMC) 104 % of control | dose: 32.0 mg/kg/injection, schedule: Q01DX015 (ip), vehicle: carboxymethylcellulose (CMC) 93 % of control and 101 % of control | dose: 64.0 mg/kg/injection, schedule: Q01DX015 (ip), vehicle: carboxymethylcellulose (CMC) 117 % of control | dose: 100.0 mg/kg/injection, schedule: Q01DX001 (ip), vehicle: other 89 % of control | dose: 200.0 mg/kg/injection, schedule: Q01DX001 (ip), vehicle: other 100 % of control

CCCC(CCC)(C(N)=O)C(=O)O
inactive: [1] 102 % of control | [2] 100 % of control | dose: 400.0 mg/kg/injection, schedule: Q01DX009 (ip), vehicle: saline 92 % of control

COc1ccc(NC(=O)ON(C)C)cc1
inactive: dose: 100.0 mg/kg/injection, schedule: Q04DX002 (ip), vehicle: DMSO 111 % of control | dose: 200.0 mg/kg/injection, schedule: Q04DX002 (ip), vehicle: DMSO 108 % of control | dose: 400.0 mg/kg/injection, schedule: Q04DX002 (ip), vehicle: DMSO 101 % of control

O=C1c2cc([N+](=O)[O-])ccc2NC1(c1c[nH]c2ccccc12)c1c[nH]c2ccc(Br)cc12 (centres undefined)
inactive: dose: 50.0 mg/kg/injection, schedule: Q01DX001 (ip), vehicle: saline 96 % of control | [3] 96 % of control | [4] 96 % of control | [5] 93 % of control

O=[N+]([O-])c1ccccc1C(c1ccc2ccccc2c1O)N1CCOCC1 (centres undefined)
inactive: dose: 100.0 mg/kg/injection, schedule: Q01DX001 (ip), vehicle: saline sonified 86 % of control | dose: 200.0 mg/kg/injection, schedule: Q01DX001 (ip), vehicle: saline sonified 91 % of control | dose: 400.0 mg/kg/injection, schedule: Q01DX001 (ip), vehicle: saline sonified 90 % of control

CC(=O)NN(N=O)C(C)c1ccccc1 (centres undefined)
inactive: [6] 108 % of control | dose: 200.0 mg/kg/injection, schedule: Q04DX002 (ip), vehicle: Klucel (hydroxypropylcellulose) (HPC) 105 % of control

Cc1cc(C)c(NS(=O)(=O)c2ccc(Cl)cc2)cc1C
inactive: [7] 108 % of control | [8] 106 % of control | [9] 100 % of control

CCOc1ccc(NC(C)=O)cc1
inactive: [10] 96 % of control | [11] 104 % of control | [12] 115 % of control

CCCCC(=O)c1cc2ccccc2c2ccccc12
inactive: [3] 94 % of control | [4] 88 % of control | [5] 98 % of control

CCOc1ccc(/C=N/NS(=O)(=O)c2ccccc2)cc1OC
inactive: [13] 94 % of control | dose: 100.0 mg/kg/injection, schedule: Q04DX003 (ip), vehicle: saline sonified 107 % of control | [14] 98 % of control | dose: 200.0 mg/kg/injection, schedule: Q04DX003 (ip), vehicle: saline sonified 86 % of control | [15] 89 % of control | dose: 400.0 mg/kg/injection, schedule: Q04DX003 (ip), vehicle: saline sonified 98 % of control

CCSN1C(=O)c2ccccc2C1=O
inactive: dose: 25.0 mg/kg/injection, schedule: Q04DX002 (ip), vehicle: Klucel (hydroxypropylcellulose) (HPC) 92 % of control | dose: 50.0 mg/kg/injection, schedule: Q04DX002 (ip), vehicle: Klucel (hydroxypropylcellulose) (HPC) 100 % of control | [6] 92 % of control

CC1(O)C(c2ccccc2)=Nc2ccccc21 (centres undefined)
inactive: dose: 100.0 mg/kg/injection, schedule: Q04DX002 (ip), vehicle: saline with Tween-80 95 % of control | dose: 200.0 mg/kg/injection, schedule: Q04DX002 (ip), vehicle: saline with Tween-80 113 % of control | dose: 400.0 mg/kg/injection, schedule: Q04DX002 (ip), vehicle: saline with Tween-80 92 % of control

Cc1ccc(NC(=O)NCCCl)c2c1CCC2
inactive: dose: 100.0 mg/kg/injection, schedule: Q01DX001 (ip), vehicle: Klucel (hydroxypropylcellulose) (HPC) 95 % of control | dose: 200.0 mg/kg/injection, schedule: Q01DX001 (ip), vehicle: Klucel (hydroxypropylcellulose) (HPC) 92 % of control | dose: 400.0 mg/kg/injection, schedule: Q01DX001 (ip), vehicle: Klucel (hydroxypropylcellulose) (HPC) 96 % of control

CCCCCCCCC1OCC(C)(C)C(C(C)C)O1 (centres undefined)
inactive: dose: 50.0 mg/kg/injection, schedule: Q01DX001 (ip), vehicle: carboxymethylcellulose (CMC) 102 % of control | [16] 104 % of control | [17] 107 % of control | [18] 104 % of control

Cc1cc(C)cc(OC(=O)Nc2ccccc2Cl)c1
inactive: [7] 88 % of control | [10] 98 % of control | [8] 92 % of control | [11] 98 % of control | [9] 86 % of control | [12] 98 % of control

Nc1ccccc1C(=O)N/N=C/c1ccccc1Cl
inactive: [7] 102 % of control | [8] 97 % of control | [9] 86 % of control

Cc1ccc(CNc2ccc(F)cc2)cc1
inactive: [13] 94 % of control | dose: 100.0 mg/kg/injection, schedule: Q04DX003 (ip), vehicle: saline with Tween-80 92 % of control | [14] 100 % of control | dose: 200.0 mg/kg/injection, schedule: Q04DX003 (ip), vehicle: saline with Tween-80 102 % of control | [15] 97 % of control | dose: 400.0 mg/kg/injection, schedule: Q04DX003 (ip), vehicle: saline with Tween-80 113 % of control

CCS(=O)(=O)c1ccc(NC(=O)Oc2ccccc2OC)cc1
inactive: [16] 89 % of control | [17] 100 % of control | [18] 100 % of control

CCCCN(CCCC)CC(O)c1cc(Cl)cc2cccnc12 (centres undefined)
inactive: dose: 12.5 mg/kg/injection, schedule: Q01DX009 (ip), vehicle: Klucel (hydroxypropylcellulose) (HPC) 106 % of control | dose: 25.0 mg/kg/injection, schedule: Q01DX009 (ip), vehicle: Klucel (hydroxypropylcellulose) (HPC) 98 % of control | dose: 50.0 mg/kg/injection, schedule: Q01DX009 (ip), vehicle: Klucel (hydroxypropylcellulose) (HPC) 109 % of control

CCCCCCCCCCCCCCCCCCn1cnc2ncnc(Cl)c21
inactive: dose: 12.5 mg/kg/injection, schedule: Q01DX005 (ip), vehicle: other 107 % of control | dose: 25.0 mg/kg/injection, schedule: Q01DX005 (ip), vehicle: other 102 % of control | dose: 50.0 mg/kg/injection, schedule: Q01DX005 (ip), vehicle: other 98 % of control | dose: 100.0 mg/kg/injection, schedule: Q01DX005 (ip), vehicle: other 106 % of control | dose: 200.0 mg/kg/injection, schedule: Q01DX005 (ip), vehicle: other 93 % of control

CC1N2CC12c1ccccc1 (centres undefined)
inactive: dose: 10.0 mg/kg/injection, schedule: Q01DX001 (ip), vehicle: saline 103 % of control | dose: 20.0 mg/kg/injection, schedule: Q01DX001 (ip), vehicle: saline 108 % of control | dose: 40.0 mg/kg/injection, schedule: Q01DX001 (ip), vehicle: saline 103 % of control

Fc1ccc(C(Cl)Cl)cc1
inactive: [1] 102 % of control | dose: 100.0 mg/kg/injection, schedule: Q04DX003 (ip), vehicle: saline 97 % of control and 86 % of control | [2] 99 % of control | dose: 200.0 mg/kg/injection, schedule: Q04DX003 (ip), vehicle: saline 101 % of control | dose: 400.0 mg/kg/injection, schedule: Q04DX003 (ip), vehicle: saline 101 % of control and 89 % of control

Cc1c(C(=O)O)cc([N+](=O)[O-])cc1[N+](=O)[O-]
inactive: dose: 50.0 mg/kg/injection, schedule: Q01DX009 (ip), vehicle: saline with Tween-80 103 % of control | [13] 97 % of control | [14] 93 % of control

COc1cc2c(cc1OC)C(C(C)C)NCC2O (centres undefined)
inactive: [3] 98 % of control | [4] 96 % of control
